# In ChEMBL document CHEMBL1201862, “PubChem BioAssay data set” (2004):
# Calls of active or inactive are those of the source.
# Tests used:
# [1] = molecular target: T1, RNA-binding protein pos-1 (Caenorhabditis elegans, UniProt G5EF15); assay: disruptors of C. elegans POS-1 RNA interaction – biochemical, fluorescence polarization, dose response (AID 1964);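 further: purified POS-1 fused to maltose binding protein made in E. coli; potency of compounds blocking POS-1 binding to fluorescent RNA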
# T1 sequence (G5EF15 whole entry): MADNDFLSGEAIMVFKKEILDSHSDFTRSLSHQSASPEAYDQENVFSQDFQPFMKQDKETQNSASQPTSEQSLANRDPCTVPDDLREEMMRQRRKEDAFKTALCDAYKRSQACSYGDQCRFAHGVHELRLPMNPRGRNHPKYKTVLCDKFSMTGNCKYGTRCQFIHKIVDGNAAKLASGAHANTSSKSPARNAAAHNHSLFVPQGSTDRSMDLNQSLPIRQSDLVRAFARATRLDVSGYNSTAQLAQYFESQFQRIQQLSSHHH
# [2] = molecular target: T2, Zinc finger protein mex-5 (Caenorhabditis elegans, UniProt Q9XUB2); assay: potency of MEX-5 RNA-binding blockers – biochemical, C. elegans, fluorescence polarization, dose response (AID 1960)
# T2 sequence (Q9XUB2 whole entry): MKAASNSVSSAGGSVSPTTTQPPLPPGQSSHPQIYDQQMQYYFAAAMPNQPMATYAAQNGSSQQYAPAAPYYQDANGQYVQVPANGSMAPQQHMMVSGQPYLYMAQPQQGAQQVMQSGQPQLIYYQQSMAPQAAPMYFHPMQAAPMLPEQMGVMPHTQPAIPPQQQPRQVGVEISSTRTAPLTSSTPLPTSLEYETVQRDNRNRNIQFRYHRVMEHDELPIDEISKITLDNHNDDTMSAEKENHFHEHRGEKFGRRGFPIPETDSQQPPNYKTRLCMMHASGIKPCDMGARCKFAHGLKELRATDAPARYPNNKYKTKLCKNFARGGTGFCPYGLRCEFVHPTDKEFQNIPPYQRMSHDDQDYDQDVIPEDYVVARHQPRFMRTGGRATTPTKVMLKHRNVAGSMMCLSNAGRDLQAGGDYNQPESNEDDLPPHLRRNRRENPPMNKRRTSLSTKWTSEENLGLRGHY
# [3] = molecular target: T3, Rac GTPase-activating protein 1 (Homo sapiens, UniProt Q9H0H5); assay: blockers of MgcRacGAP-driven Rac1 GTP hydrolysis – biochemical, ADP Hunter fluorescence, primary and confirmatory, confirmation (AID 624330); type: functional
# T3 sequence (Q9H0H5 whole entry): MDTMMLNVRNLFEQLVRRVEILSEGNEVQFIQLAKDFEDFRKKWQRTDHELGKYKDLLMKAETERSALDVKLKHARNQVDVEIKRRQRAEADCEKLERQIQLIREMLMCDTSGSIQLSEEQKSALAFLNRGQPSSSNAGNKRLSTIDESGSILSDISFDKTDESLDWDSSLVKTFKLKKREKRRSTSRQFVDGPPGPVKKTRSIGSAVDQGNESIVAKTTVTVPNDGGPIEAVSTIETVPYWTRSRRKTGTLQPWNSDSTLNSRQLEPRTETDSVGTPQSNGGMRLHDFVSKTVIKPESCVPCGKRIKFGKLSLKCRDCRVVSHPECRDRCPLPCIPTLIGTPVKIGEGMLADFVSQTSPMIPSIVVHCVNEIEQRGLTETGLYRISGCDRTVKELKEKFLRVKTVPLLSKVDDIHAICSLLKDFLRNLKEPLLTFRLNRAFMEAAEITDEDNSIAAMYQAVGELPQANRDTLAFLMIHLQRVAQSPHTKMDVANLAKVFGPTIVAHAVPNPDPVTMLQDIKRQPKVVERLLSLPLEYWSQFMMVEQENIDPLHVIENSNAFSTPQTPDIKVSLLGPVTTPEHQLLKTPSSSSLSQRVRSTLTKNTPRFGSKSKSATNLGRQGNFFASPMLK
# [4] = tested on: Streptococcus sp. 'group A'; assay: Streptococcus pyogenes SK(-)GAS viability under kanamycin – luminescence, BacTiterGlo, confirmation, counter-screen for streptokinase expression inhibitor project, dose response (AID 1900); type: functional, organism-based
# [5] = molecular target: T4, Streptokinase A (Streptococcus pyogenes serotype M1, UniProt P10520); assay: viability-normalized secreted streptokinase activity reduction – plasminogen activation absorbance, OD405, dose response (AID 1914); type: functional, Streptococcus pyogenes M1 GAS;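 further: secreted streptokinase activity via plasminogen activation per viability signal from cell pellet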
# T4 sequence (P10520 whole entry): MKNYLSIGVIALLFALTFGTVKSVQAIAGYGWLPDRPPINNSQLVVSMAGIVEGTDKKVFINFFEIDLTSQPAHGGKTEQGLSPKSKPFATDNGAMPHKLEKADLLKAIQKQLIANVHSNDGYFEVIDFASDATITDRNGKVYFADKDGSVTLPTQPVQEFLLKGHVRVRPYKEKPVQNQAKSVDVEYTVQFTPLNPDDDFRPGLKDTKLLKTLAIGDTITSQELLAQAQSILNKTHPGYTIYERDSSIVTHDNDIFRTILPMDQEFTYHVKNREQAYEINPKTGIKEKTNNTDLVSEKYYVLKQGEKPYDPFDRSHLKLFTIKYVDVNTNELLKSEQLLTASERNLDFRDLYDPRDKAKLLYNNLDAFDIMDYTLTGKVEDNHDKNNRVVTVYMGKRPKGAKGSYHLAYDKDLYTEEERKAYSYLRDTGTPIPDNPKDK
# [6] = tested on: Streptococcus; assay: GAS UMAA2166 growth inhibition – luminescence, BacTiterGlo, counter-screen for streptokinase expression inhibitor project, dose response (AID 1915); type: functional, organism-based;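 further: potency for reduction of bacterial viability or growth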
# [7] = molecular target: T5, Corticotropin-releasing factor receptor 2/Corticotropin-releasing factor-binding protein (Homo sapiens, UniProt P24387+Q13324); assay: Dose Response confirmation of uHTS hits for small molecule antagonists of the CRF-binding protein and CRF-R2 receptor complex.; type: functional; conditions: read-out: IC50_Mean
# T5 sequence (Q13324 whole entry): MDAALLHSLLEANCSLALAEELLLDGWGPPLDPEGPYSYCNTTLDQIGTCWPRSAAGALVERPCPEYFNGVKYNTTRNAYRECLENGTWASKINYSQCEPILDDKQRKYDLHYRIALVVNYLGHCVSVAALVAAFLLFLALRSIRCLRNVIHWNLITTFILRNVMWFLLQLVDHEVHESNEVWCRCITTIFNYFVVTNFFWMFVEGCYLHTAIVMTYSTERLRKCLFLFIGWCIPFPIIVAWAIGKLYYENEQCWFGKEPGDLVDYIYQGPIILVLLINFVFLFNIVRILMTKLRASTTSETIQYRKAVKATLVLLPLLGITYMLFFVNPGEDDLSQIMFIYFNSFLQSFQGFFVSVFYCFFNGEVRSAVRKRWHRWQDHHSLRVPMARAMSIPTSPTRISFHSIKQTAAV
# T5 sequence (P24387 whole entry): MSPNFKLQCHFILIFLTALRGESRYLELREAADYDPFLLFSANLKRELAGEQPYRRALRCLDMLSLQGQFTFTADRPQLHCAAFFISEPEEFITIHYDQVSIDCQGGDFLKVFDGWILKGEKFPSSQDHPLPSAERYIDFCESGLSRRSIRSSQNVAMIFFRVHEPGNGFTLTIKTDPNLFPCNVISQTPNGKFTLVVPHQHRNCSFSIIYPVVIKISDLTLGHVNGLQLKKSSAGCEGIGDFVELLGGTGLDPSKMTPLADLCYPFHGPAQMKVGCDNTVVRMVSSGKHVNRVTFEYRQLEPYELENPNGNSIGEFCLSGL
# [8] = molecular target: T6, Cytochrome P450 1A2 (Homo sapiens, UniProt P05177);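 further: PubChem cytochrome P450 panel assay, CYP1A2 panel member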
# T6 sequence (P05177 whole entry): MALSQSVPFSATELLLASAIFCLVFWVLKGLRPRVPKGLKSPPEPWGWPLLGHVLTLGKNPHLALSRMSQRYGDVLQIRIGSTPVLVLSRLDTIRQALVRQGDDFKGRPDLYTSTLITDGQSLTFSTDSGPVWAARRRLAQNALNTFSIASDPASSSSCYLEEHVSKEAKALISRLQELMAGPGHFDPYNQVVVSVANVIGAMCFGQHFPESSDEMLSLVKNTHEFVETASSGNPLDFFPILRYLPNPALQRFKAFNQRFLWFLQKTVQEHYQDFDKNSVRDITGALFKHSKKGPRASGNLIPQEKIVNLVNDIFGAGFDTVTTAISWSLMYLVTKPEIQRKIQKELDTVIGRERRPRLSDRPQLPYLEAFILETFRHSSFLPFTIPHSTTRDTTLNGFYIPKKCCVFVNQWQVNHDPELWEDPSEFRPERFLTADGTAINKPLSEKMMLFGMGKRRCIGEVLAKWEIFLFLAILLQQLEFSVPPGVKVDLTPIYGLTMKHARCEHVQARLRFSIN
# [9] = molecular target: Cytochrome P450 2C9 (Homo sapiens, UniProt P11712)
# Sequence of Cytochrome P450 2C9 (P11712 whole entry): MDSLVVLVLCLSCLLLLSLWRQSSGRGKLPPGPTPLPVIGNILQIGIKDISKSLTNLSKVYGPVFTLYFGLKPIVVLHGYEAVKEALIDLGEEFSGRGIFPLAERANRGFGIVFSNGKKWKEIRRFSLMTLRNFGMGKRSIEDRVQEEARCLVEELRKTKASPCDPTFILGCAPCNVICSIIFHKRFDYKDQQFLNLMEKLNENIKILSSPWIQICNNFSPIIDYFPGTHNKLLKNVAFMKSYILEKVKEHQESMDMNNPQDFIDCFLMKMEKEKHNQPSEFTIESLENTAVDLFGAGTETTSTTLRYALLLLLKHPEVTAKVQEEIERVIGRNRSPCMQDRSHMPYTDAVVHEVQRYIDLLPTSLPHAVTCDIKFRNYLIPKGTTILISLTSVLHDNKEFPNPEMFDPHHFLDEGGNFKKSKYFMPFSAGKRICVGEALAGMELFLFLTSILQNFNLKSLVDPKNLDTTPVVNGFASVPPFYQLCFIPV
# [10] = molecular target: T5, Corticotropin-releasing factor receptor 2/Corticotropin-releasing factor-binding protein; assay: activators of CRF receptor 2 with binding protein – uHTS hits, confirmation (AID 602473); type: functional; conditions: read-out: EC50_Mean
# [11] = molecular target: Cytochrome P450 2C19 (Homo sapiens, UniProt P33261); assay: Cytochrome panel assay with activity outcomes. Panel member name: p450-cyp2c19 Compounds with AC50 equal or less than 10 uM are considered active; type: functional; conditions: read-out: AC50
# Sequence of Cytochrome P450 2C19 (P33261 whole entry): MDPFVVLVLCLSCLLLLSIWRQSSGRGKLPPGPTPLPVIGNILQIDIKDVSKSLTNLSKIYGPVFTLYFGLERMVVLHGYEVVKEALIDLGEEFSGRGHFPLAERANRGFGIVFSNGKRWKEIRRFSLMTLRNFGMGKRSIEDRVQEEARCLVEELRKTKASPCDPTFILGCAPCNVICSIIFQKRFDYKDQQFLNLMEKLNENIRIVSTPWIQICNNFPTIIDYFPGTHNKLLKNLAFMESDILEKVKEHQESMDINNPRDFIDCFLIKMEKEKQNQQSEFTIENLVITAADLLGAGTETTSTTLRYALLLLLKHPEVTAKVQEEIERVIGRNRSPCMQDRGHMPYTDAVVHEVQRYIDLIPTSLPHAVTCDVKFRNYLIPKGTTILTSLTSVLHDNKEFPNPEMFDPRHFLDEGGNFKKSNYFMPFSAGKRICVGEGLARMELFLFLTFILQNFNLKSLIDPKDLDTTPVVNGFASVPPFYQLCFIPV
# [12] = molecular target: T7, Heat shock factor protein 1 (Mus musculus, UniProt P38532); assay: decrease of HSF1-responsive luciferase luminescence – cell-based, NIH3T3, dose retest, confirmation (AID 2382); type: functional;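 further: NIH3T3 fibroblasts with HSF1-driven luciferase reporter stressed by proteasome inhibitor MG132; luminescence from HSF1-driven luciferase expression after 8 hours of MG132 stress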
# T7 sequence (P38532 whole entry): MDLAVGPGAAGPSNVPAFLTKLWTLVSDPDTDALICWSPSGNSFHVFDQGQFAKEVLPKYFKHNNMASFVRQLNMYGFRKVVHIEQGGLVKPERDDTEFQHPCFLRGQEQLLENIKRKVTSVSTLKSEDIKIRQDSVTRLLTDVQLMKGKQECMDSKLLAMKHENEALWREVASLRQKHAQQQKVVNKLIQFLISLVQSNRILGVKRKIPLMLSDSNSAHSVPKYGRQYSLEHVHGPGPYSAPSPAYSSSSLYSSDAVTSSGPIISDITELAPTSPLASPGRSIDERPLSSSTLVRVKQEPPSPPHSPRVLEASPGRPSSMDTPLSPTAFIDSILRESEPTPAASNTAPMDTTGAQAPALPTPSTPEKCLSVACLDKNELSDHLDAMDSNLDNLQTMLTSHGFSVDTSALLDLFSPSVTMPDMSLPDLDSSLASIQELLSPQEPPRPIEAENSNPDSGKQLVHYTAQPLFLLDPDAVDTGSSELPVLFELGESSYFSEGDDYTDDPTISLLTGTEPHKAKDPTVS
# [13] = molecular target: Paired box protein Pax-8 (Homo sapiens, UniProt Q06710); assay: PAX8 transcriptional activity inhibition in RMG-I – RMG-I cells, luciferase, cherry-pick, dose response (AID 687027); type: functional, cell-based;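 further: luciferase reporter driven by Pax8 target thyroperoxidase promoter measured by SteadyGlo luminescence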
# Sequence of Paired box protein Pax-8 (Q06710 whole entry): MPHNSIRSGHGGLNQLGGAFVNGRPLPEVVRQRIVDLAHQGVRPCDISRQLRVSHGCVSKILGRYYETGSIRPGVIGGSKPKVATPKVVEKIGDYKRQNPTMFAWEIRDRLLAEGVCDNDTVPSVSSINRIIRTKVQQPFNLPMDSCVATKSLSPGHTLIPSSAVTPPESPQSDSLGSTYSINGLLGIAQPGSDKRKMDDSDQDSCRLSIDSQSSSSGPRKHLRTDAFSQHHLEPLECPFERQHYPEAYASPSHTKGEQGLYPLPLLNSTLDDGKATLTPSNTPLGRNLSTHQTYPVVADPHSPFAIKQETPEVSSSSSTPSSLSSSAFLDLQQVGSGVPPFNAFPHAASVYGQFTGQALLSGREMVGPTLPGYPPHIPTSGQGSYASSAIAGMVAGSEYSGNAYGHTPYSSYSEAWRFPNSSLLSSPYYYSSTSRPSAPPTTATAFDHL
structure (smiles),measurement,setting,value
O=C(O)c1ccccc1-n1cccc1C(=O)O,EC50,[1],> 300 µM (not active)
same,EC50,[2],> 300 µM (not active)
O=C(c1ccccc1F)N1CCN(Cc2ccc3c(c2)OCO3)CC1,IC50,[3],125 µM (active)
CCOC(=O)c1c(O)cc(C)cc1Nc1ccccc1,EC50,[4],> 150 µM (not active)
same,EC50,[5],139 µM (active)
same,EC50,[6],> 150 µM (not active)
Cc1sc2ncnc(OCC(=O)NC(C)C)c2c1C,IC50,[7],> 47.1 µM (inactive)
same,AC50,[8],31.6 µM (inconclusive)
same,AC50,[9],22.4 µM (inconclusive)
same,EC50,[10],> 53 µM (inactive)
same,AC50,[11],20 µM (inconclusive)
COC(=O)CCC(=O)OC1(C)C(=O)C=C2C=C(C3CC3)N(c3ccc(CO)cc3)C=C2C1=O (configuration not stated),EC50,[1],25.5 µM (active)
same,EC50,[2],23.5 µM (active)
Oc1ccc(N2CCN(Cc3cc4c(cc3Br)OCCO4)CC2)cc1,IC50,[3],66.7 µM (active)
Cc1cc([N+](=O)[O-])cc2c1NCC1CC=CC21 (configuration not stated),EC50,[1],> 300 µM (not active)
same,EC50,[2],> 300 µM (not active)
Cc1cc(/C=C2/C(=N)N3C(=NC2=O)SN=C3S(C)(=O)=O)c(C)n1-c1ccc(F)cc1,EC50,[4],9.96 µM (active)
same,EC50,[5],> 150 µM (not active)
same,EC50,[6],> 150 µM (not active)
Cc1noc(C)c1-c1nnc(-c2ccc(OC(F)(F)F)cc2)o1,EC50,[4],> 150 µM (not active)
same,EC50,[5],> 150 µM (not active)
same,EC50,[6],> 150 µM (not active)
Cc1cc2nc(N=C(N)NC(=O)C(C)C)nc(C)c2cc1C,EC50,[5],> 150 µM (not active)
COCCn1c(N)c(NCc2ccccc2)c(=O)[nH]c1=O,EC50,[1],5.47 µM (inconclusive)
same,EC50,[2],3.03 µM (active)
Cc1ccc(N2C(=O)NC(=O)/C(=C/c3cnn(-c4ccc(C)cc4)c3)C2=O)cc1,EC50,[1],> 300 µM (not active)
same,EC50,[2],67.5 µM (active)
same,EC50,[12],> 195 µM (not active)
O=C(Nc1ccc([N+](=O)[O-])cn1)c1cc(-c2cccc(Br)c2)nc2ccccc12,AC50,[13],45.6 µM (active)
COc1cc(NC(=O)CSc2ncnc3sc4c(c23)CCCC4)c(C(=O)O)cc1OC,EC50,[4],20.8 µM (active)
same,EC50,[5],> 150 µM (not active)
same,EC50,[6],> 150 µM (not active)
COc1ccc(NC2CCCN(C(=O)c3csc(C)n3)C2)cc1 (configuration not stated),IC50,[3],107 µM (active)
Cc1ccc(S(=O)(=O)Nc2ccc3c(c2)C(=O)N([C@H](C)CO)C[C@@H](C)[C@H](CN(C)Cc2ccc(C(F)(F)F)cc2)OCCCC[C@@H](C)O3)cc1,AC50,[13],8.45 µM (active)
C[C@@H]1CN([C@H](C)CO)C(=O)c2cc(NC(=O)Nc3ccc(F)cc3)ccc2O[C@@H](C)CCCCO[C@H]1CN(C)S(=O)(=O)c1ccc(F)cc1,AC50,[13],8.62 µM (active)
C[C@@H]1CCCCO[C@H](CN(C)Cc2ccc(Cl)c(Cl)c2)[C@@H](C)CN([C@@H](C)CO)C(=O)c2cc(NS(=O)(=O)c3ccc(Cl)cc3)ccc2O1,AC50,[13],10.2 µM (active)
OC(C/N=c1\sc2ccccc2n1CC(O)COc1ccccc1)COc1ccccc1 (configuration not stated),EC50,[4],8.85 µM (active)
same,EC50,[5],10.3 µM (active)
same,EC50,[6],> 150 µM (not active)
O=C1N=C(N/N=C/c2cccs2)SC1Cc1ccc(Cl)c(Cl)c1 (configuration not stated),EC50,[12],21 µM (active)
same,EC50,[5],> 150 µM (not active)
same,EC50,[6],> 150 µM (not active)
